Residues, ends and D or L forms follow the SMILES beside them.
Assays:
F. culmorum = assay: Inhibitory effect of pure lipopeptides and their combinations on growth in PDB, OD 600 nm; format: cell-based, Fusarium culmorum
Protocol: (§1) Increasing concentrations of pure stocks of surfactin (Sigma S3523, FIG. 3A), fengycin (Sigma SMB00292, FIG. 3B) or iturin (Sigma 11774, FIG. 3C) were added to 48-well microtiter plates containing PDB medium and a fixed fungal spore concentration. Inhibitory effect over two different phytopathogenic species was assayed, F. culmorum (FIG. 3, left) and P. irregulare (FIG. 3, right). Plates were incubated at 25° C. without shaking for 60 hours (in dark conditions) and fungal growth was measured by spectrophotometry at 600 nm. Experiments were carried out in biological duplicates with no major variations in inhibition potency of the tested strains.
(§2) Fungal growth inhibition of increasing concentrations of single compounds was compared with compound combinations, where a fixed concentration of one of them was assayed in combination with increasing concentrations of the second metabolite.

P. irregulare = assay: as above; format: cell-based, Pythium irregulare
Protocol: as §1, §2

[1] = even at high concentrations (200-400 μg/ml), FIG. 3A
[2] = in the presence of surfactin, FIG. 4

With `CC(C)CCCCCCCCC[C@@H]1CC(=O)N[C@@H](CCC(=O)O)C(=O)N[C@@H](CC(C)C)C(=O)N[C@H](CC(C)C)C(=O)N[C@@H](C(C)C)C(=O)N[C@@H](CC(=O)O)C(=O)N[C@H](CC(C)C)C(=O)N[C@@H](CC(C)C)C(=O)O1` [surfactin] (HELM PEPTIDE1{E.L.[dL].V.D.[dL].L}|CHEM1{[CC(C)CCCCCCCCC[C@H](CC(=O)[*:1])O[*:2]]}$PEPTIDE1,CHEM1,1:R1-1:R1|PEPTIDE1,CHEM1,7:R2-1:R2$$$V2.0) as the compound, how does the “inhibitory effect on growth” value (F. culmorum; [1]) read?
The value was “very modest”.

What about the “inhibitory effect on growth” value (P. irregulare; [1]) of the same compound?
Its value is “very modest”.

For fengycin, which “increase of bioactivity of fengycin in the presence of surfactin” value (F. culmorum; [2]) is on record?
Its value is “up to 6 fold”.

And the “effective concentration of fengycin required to inhibit growth” value (P. irregulare; at surfactin concentrations of 100-200 μg/ml)?
The value was 12.5 µg/mL.

What about the “increase of bioactivity of fengycin in the presence of surfactin” value (P. irregulare; [2]) of the same compound?
The value was “up to 6 fold”.

Which results are given for iturin?
effective concentration for growth inhibition (F. culmorum; 60 h, 25° C., FIG. 3C): 9 µg/mL; effective concentration for growth inhibition (P. irregulare; 60 h, 25° C., FIG. 3C): 9 µg/mL

From patent US20260047583A1, “Bacillus Strain and Variants Thereof for Inhibition of Plant Diseases” (CHR. HANSEN A/S, priority 2022, published 2026)
